Measured values as given in patent publication US6667387B1, “HCV core peptides” (priority 1992, dated 2003).
Ends that are not written are not given here.

What was measured:
Assay type in all cases: binding, human
[1] = system: antibodies in antisera from HIV-1 infected persons; experiment: ELISA with HIV-1 antibody-positive sera (biotinylated peptides on streptavidin- or avidin-coated plates, unbiotinylated peptides coated directly); conditions: for optical density (450 nm): Table 2; for number borderline / number negative / number positive / percent borderline / percent negative / percent positive: Table 16
Method: (§1) Where peptides were to be coated directly, stock solutions of the peptides were diluted in sodium carbonate buffer, pH 9.6 and used to coat polystyrene microtiter plates at a peptide concentration of 2 to 5 micrograms per milliliter for 1 hour at 37° C.
(§2) In cases where biotinylated peptides were to be evaluated, plates were first coated with streptavidin in sodium carbonate buffer, pH 9.6 at a concentration of 3 micrograms per milliliter for 1 hour at 37° C. The plates were then washed to remove excess, unbound protein. A working solution of the biotinylated peptide at 1 microgram per milliliter in sodium carbonate buffer was then added to the wells of the microtiter plate and incubated for 1 hours at 37° C.
(§3) Once the plates had been coated with antigen, any remaining free binding sites on the plastic were blocked with casein. After washing, a dilution of the appropriate antisera, usually 1:100, was added to the wells of the plates and incubated for 1 hour at 37° C.
(§4) After washing to remove unbound material, specific antibody binding was detected by incubating the plates with goat anti-human immunoglobulin antibodies conjugated to the enzyme horseradish peroxidase. Following removal of unbound conjugate by washing, a solution containing H2O2 and 3,3′,5,5′-tetramethylbenzidine was added.
(§5) Reactions were stopped after a suitable interval by addition of sulfuric acid. […] Absorbance measurements were made at a wavelength of 450 nanometers and all data are expressed as an optical density value at this wavelength.
Experiments were performed to evaluate antibody recognition of short, 10 amino acid-long, N-acetylated peptides corresponding to other contained within the transmembrane proteins of HIV-1 and HIV-2. […] The peptides used for the comparison were as follows:
Antibody binding to these peptides was compared to antibody binding to the unibiotinylated peptides which were coated directly onto microtiter plates.
In order to evaluate antibody recognition of these two peptides, the peptides were bound individually to streptavidin-coated microtiter plates and tested using a panel of antisera from HIV-1 seropositive donors.
(§6) To determine how well biotinylated peptides would function in a mixture when bound to streptavidin- or avidin-coated plates, two mixtures were made of the N-terminally biotinylated versions of the HIV-1 peptides TM-HIV-1 (hereabove referred to as 1a.1) and V3-nm (hereabove referred to as 1b.4), the HIV-2 peptide TM-HIV-2 (hereabove referred to as 2a), and the hepatitis C virus peptides II, IX, and XVIII. Mixture A contained each of the six biotinylated peptides at a concentration of 1 microgram per milliliter (6 micrograms per milliliter peptide, total) while in mixture B, each peptide was present at a concentration of 0.1 microgram per milliliter (0.6 microgram per milliliter peptide, total). The individual peptides were coated at a concentration of 1 microgram per milliliter. For purposes of comparison, mixtures A and B were also coated directly onto the wells of a microtiter plate. Samples from HIV-1, HIV-2, and HCV-seropositive donors were tested and compared to sera from seronegative blood donors. A cut-off absorbance value of 0.250 was used to determine whether a reaction was positive or negative. Absorbance values equal or greater than 0.250 were considered positive while absorbance values below this value were considered negative.
A spacer consisting of two glycine residues was added to the amino terminus.

[2] = ELISA with seronegative / negative control sera (specificity)
Method: as §1, §2, §3, §4, §5
(§7) Unbiotinylated HCV peptide I was coated directly onto the wells of a polystyrene ELISA plate at a concentration of 3 micrograms per milliliter in sodium carbonate buffer, pH 9.6. Biotinylated HCV peptide I was bound to streptavidin-coated wells using a stock solution containing the peptide at a concentration of 1 microgram per milliliter. The resulting plates were then incubated in parallel with a panel of sera from HCV-seropositive donors. […] Two of the sera (8326 and 8244) recognize the biotinylated version of this peptide far better than the unbiotinylated version. The specificity of the antibody reaction is also reflected by the low optical density values obtained for 5 serum samples from uninfected donors (F88, F89, F76, F136, and F6).
as §6

[3] = system: antibodies in antisera from HIV-2 infected persons; experiment: ELISA with HIV-2 antibody-positive sera (biotinylated peptides on streptavidin- or avidin-coated plates, unbiotinylated peptides coated directly); conditions: Table 17; HIV-2 positive sera, 21 tested
Method: as §1, §2, §3, §4, §5
The biotinylated peptides were loaded onto microtiter plates which had been coated with streptavidin. Antibody binding to these peptides was compared to antibody binding to the unibiotinylated peptides which were coated directly onto microtiter plates. It is evident that the biotinylated peptides from the HIV-1 or HIV-2 transmembrane proteins bound to streptavidin are recognized very well by antisera from HIV-1 or HIV-2 infected persons respectively. This is in contrast to the unbiotinylated versions of these peptides coated directly onto the polystyrene plates.
as §6
Two glycine residues were added at the N-terminus of each peptide to serve as a spacer and a biotin was coupled to the α-amino group of the resulting N-terminal glycine. The peptides were bound to streptavidin and coated in the wells of microwell plates. HIV-2 antibody-positive sera were used to evaluate these two peptides in an ELISA.

[4] = system: antibodies in sera from HCV-seropositive donors; experiment: ELISA with HCV antibody-positive sera (biotinylated peptides on streptavidin- or avidin-coated plates, unbiotinylated peptides coated directly); conditions: for optical density (450 nm): 20-fold dilution; for PEPTIDE ELISA (O.D.): Table 12, biotinylated 20-mers
Method: as §1, §2, §3, §4, §5
The unbiotinylated peptides were adsorbed onto the wells of polystyrene microtiter plates at a concentration of 3 micrograms per milliliter.
The biotinylated peptides were bound at a concentration of 1 microgram per milliliter to streptavidin-coated microtiter plates. Sera known to contain antibodies to these peptides were used for the evaluation and were tested at a 20-fold dilution.
To investigate further the enhanced antibody recognition of biotinylated HCV peptides bound to streptavidin or avidin as compared to direct adsorption on plastic, the influence of peptide coating concentration was investigated. Three peptides (HCV peptides II, XI, and XVI) were coated in concentrations ranging from 10 nanograms per milliliter to 3 micrograms per milliliter in a volume of 200 microliters per microtiter plate well. For direct coating, the unbiotinylated versions of these peptides were used. The biotinylated versions of these peptides were used to coat wells to which streptavidin had previously been adsorbed. Sera known to contain antibodies to these peptides were used at a dilution of 1 to 100 to evaluate the magnitude of antibody binding.
as §7
To determine how well biotinylated peptides would function in a mixture when bound to streptavidin- or avidin-coated plates, two mixtures were made of the N-terminally biotinylated versions of the HIV-1 peptides TM-HIV-1 (hereabove referred to as 1a.1) and V3-nm (hereabove referred to as 1b.4), the HIV-2 peptide TM-HIV-2 (hereabove referred to as 2a), and the hepatitis C virus peptides II, IX, and XVIII. […]

Substance: Ac-Tyr-Asn-Lys-Arg-Lys-Arg-Ile-His-Ile-Gly-Pro-Gly-Arg-Ala-Phe-Tyr-Thr-Thr-Lys-Asn-Ile-Ile-Gly-NH2 (Ac-YNKRKRIHIGPGRAFYTTKNIIG-NH2) [Peptide V3-mn]
- optical density (450 nm) ([1]; sample 266): 0.951
- optical density (450 nm) ([1]; sample 3990): 1.442
- optical density (450 nm) ([1]; sample 4436): 0.388
- optical density (450 nm) ([1]; sample 4438): 0.736
- optical density (450 nm) ([1]; sample DV): 1.314
- optical density (450 nm) ([1]; sample MM): 0.791
- optical density (450 nm) ([1]; sample OOST 4): 1.106
- optical density (450 nm) ([1]; sample OOST 6): 1.025
- optical density (450 nm) ([1]; sample OOST 8): 1 389
- optical density (450 nm) ([1]; sample PL): 0.531
- optical density (450 nm) ([1]; sample VE): 1.717
- optical density (450 nm) ([1]; sample YS): 1.442
- optical density (450 nm) ([2]; Table 2, negative control): 0.063

Substance: Asn Lys Thr Val Leu Pro Val Thr Ile Met Ser Gly Leu Val Phe His Ser Gln Pro Ile Asn Asp (NKTVLPVTIMSGLVFHSQPIND; printed: Asn Lys Thr Val Leu Pro Val Thr Ile Met Ser Gly Leu Val Phe His Ser Gln Pro Ile Asn Asp) [Peptide V2-239, HIV-2/SIV mm 239 V3; two glycine residues at the N-terminus and biotin]
- number borderline [3]: 2
- number negative [3]: 0
- number positive [3]: 19
- percent borderline [3]: 9.5%
- percent negative [3]: 0%
- percent positive [3]: 90.5%

Substance: Asn Lys Thr Val Val Pro Ile Thr Leu Met Ser Gly Leu Val Phe His Ser Gln Pro Ile Asn Lys (NKTVVPITLMSGLVFHSQPINK; printed: Asn Lys Thr Val Val Pro Ile Thr Leu Met Ser Gly Leu Val Phe His Ser Gln Pro Ile Asn Lys) [Peptide V3-GB12, HIV-2 V3; two glycine residues at the N-terminus and biotin]
- number borderline [3]: 0
- number negative [3]: 0
- number positive [3]: 21
- percent borderline [3]: 0%
- percent negative [3]: 0%
- percent positive [3]: 100%

Substance: NNTRRGIHMGWGRTFYATGEIIG [Peptide V3-368, two glycine residues at the amino terminus, N-terminal glycine biotinylated]
- number borderline ([1]; African sera, 45 tested): 9
- number negative ([1]; African sera, 45 tested): 31
- number positive ([1]; African sera, 45 tested): 5
- percent borderline ([1]; African sera, 45 tested): 20%
- percent negative ([1]; African sera, 45 tested): 69%
- percent positive ([1]; African sera, 45 tested): 11%
- number borderline ([1]; Brazilian sera, 36 tested): 15
- number negative ([1]; Brazilian sera, 36 tested): 5
- number positive ([1]; Brazilian sera, 36 tested): 16
- percent borderline ([1]; Brazilian sera, 36 tested): 41.7%
- percent negative ([1]; Brazilian sera, 36 tested): 13.9%
- percent positive ([1]; Brazilian sera, 36 tested): 44.4%
- number borderline ([1]; European sera, 36 tested): 20
- number negative ([1]; European sera, 36 tested): 12
- number positive ([1]; European sera, 36 tested): 4
- percent borderline ([1]; European sera, 36 tested): 56%
- percent negative ([1]; European sera, 36 tested): 33%
- percent positive ([1]; European sera, 36 tested): 11%

Substance: Ser-Gln-His-Leu-Pro-Tyr-Ile-Glu-Gln-Gly-Met-Met-Leu-Ala-Glu-Gln-Phe-Lys-Gln-Lys [Biotinylated peptide XI] (SQHLPYIEQGMMLAEQFKQK; also: biotinylated) [probably the unbiotinylated peptide XI, acetylated at the amino terminus, coated directly]
- optical density (450 nm) ([4]; Table 4A, serum 2): 0.090
- optical density (450 nm) ([4]; Table 4A, serum 3): 0.443
- optical density (450 nm) ([4]; Table 4A, serum 4): 0.473
- optical density (450 nm) ([4]; Table 4A, serum 6): 0.053
- optical density (450 nm) ([4]; Table 4A, serum 8): 1.275
- optical density (450 nm) ([4]; Table 4A, serum 10): 0.764
- optical density (450 nm) ([4]; Table 4A, serum 11): 0.569
- optical density (450 nm) ([4]; Table 4A, serum 23): 0.775
- optical density (450 nm) ([4]; Table 4A, serum 31): 0.497
- optical density (450 nm) ([4]; Table 4A, serum 33): 0.832
- optical density (450 nm) ([4]; Table 4A, serum 49): 0.515
- optical density (450 nm) ([4]; Table 4A, serum 77): 0.093
- optical density (450 nm) ([2]; Table 4A, negative serum): 0.053

Substance: TRKTSERSQPRGRRQPIPKV [listing 1 of 2 here]
- optical density (450 nm) ([4]; Table 4E, serum 8272): 0.589
- optical density (450 nm) ([4]; Table 4E, serum 8273): 0.294
- optical density (450 nm) ([4]; Table 4E, serum 8274): 1.820
- optical density (450 nm) ([4]; Table 4E, serum 8275): 1.728
- optical density (450 nm) ([4]; Table 4E, serum 8276): 2.194
- optical density (450 nm) ([4]; Table 4E, serum 8277): 0.770
- optical density (450 nm) ([4]; Table 4E, serum 8278): 1.391
- optical density (450 nm) ([4]; Table 4E, serum 8284): 0.040
- optical density (450 nm) ([2]; Table 4E, negative serum): 0.047

Substance: TRKTSERSQPRGRRQPIPKV [listing 2 of 2 here]
- optical density (450 nm) ([4]; Table 4E, serum 8272): 1.220
- optical density (450 nm) ([4]; Table 4E, serum 8273): 1.026
- optical density (450 nm) ([4]; Table 4E, serum 8274): 2.662
- optical density (450 nm) ([4]; Table 4E, serum 8275): 1.724
- optical density (450 nm) ([4]; Table 4E, serum 8276): 2.616
- optical density (450 nm) ([4]; Table 4E, serum 8277): 1.796
- optical density (450 nm) ([4]; Table 4E, serum 8278): 1.746
- optical density (450 nm) ([4]; Table 4E, serum 8284): 0.757
- PEPTIDE ELISA (O.D.) ([4]; serum 0843): 1.378
- PEPTIDE ELISA (O.D.) ([4]; serum 8240): 2.021
- PEPTIDE ELISA (O.D.) ([4]; serum 8241): 0.274
- PEPTIDE ELISA (O.D.) ([4]; serum 8242): 2.315
- PEPTIDE ELISA (O.D.) ([4]; serum 8332): 1.455
- PEPTIDE ELISA (O.D.) ([4]; serum 8339): 2.598
- PEPTIDE ELISA (O.D.) ([4]; serum 8350): 0.685
- PEPTIDE ELISA (O.D.) ([4]; serum 8377): 0.076
- PEPTIDE ELISA (O.D.) ([4]; serum 8378): 1.228
- PEPTIDE ELISA (O.D.) ([4]; serum 8388): 2.162
- optical density (450 nm) ([2]; Table 4E, negative serum): 0.070
